Some test systems named below: BT-549; DU-145; HCC 2998; HOP-62; Hs-578T; IGROV-1; M14; MCF7; NCI-H460; NCI/ADR-RES; OVCAR-3; OVCAR-8; PC-3; SF-295; SK-MEL-2; SNB-19; SW-620; U-251; HOP-92; LOX IMVI.
Assay in all cases: DTP human tumour cell line panel, 48 h

The text below walks through data of ChEMBL document CHEMBL1201862, “PubChem BioAssay data set” (2004).

Several values for one entry are separate records, joined by “and”; a condition that tells them apart may be missing. Equal values may be shown once.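 Grown in 96-well plates, cells were treated for 48 hours with each compound at five concentrations. Insufficient inhibition: endpoint recorded as highest concentration tested. Here, GI50 denotes the concentration required for 50% inhibition of growth.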 Activity calls are given as the source filed them. Cut-off read from the data, not from the text of the source: active = GI50 up to about 1.1 µM and inactive = higher.

A word on the GI50: it is the concentration at which growth is held to half of that of the control. As to `S=C(Nc1c2c(nc3ccccc13)CCCC2)Nc1c2c(nc3ccccc13)CCCC2`, the GI50 with BT-549, with DU-145, with HCC 2998, with HOP-62, in the assay with Hs-578T and with IGROV-1 was > 100 µM (inactive) in each case. Further, the GI50 in the assay on M14, in the assay on MCF7, in the assay with NCI-H460, in the assay with NCI/ADR-RES, with OVCAR-3 and in the assay with OVCAR-8 was > 100 µM (inactive) each time. Further, the GI50 in the assay on PC-3, in the assay on SF-295, in the assay on SK-MEL-2, in the assay with SNB-19, in the assay with SW-620 and in the assay with U-251 was > 100 µM (inactive) each time.

On to `CCCCCCCCCCCCCCCCOC[C@H](COC(c1ccccc1)(c1ccccc1)c1ccccc1)O[PH](=S)OC` (stereo partly specified), for which the GI50 in the assay on BT-549, in the assay with DU-145, in the assay on HOP-92, in the assay on Hs-578T, in the assay on IGROV-1 and in the assay on LOX IMVI was > 100 µM (inactive) each time. The GI50 in the assay with M14, in the assay with MCF7, with NCI-H460, with NCI/ADR-RES, in the assay with OVCAR-3 and in the assay with OVCAR-8 was > 100 µM (inactive) each time. The GI50 in the assay on PC-3, with SF-295, with SK-MEL-2, with SNB-19, with SW-620 and with U-251 was > 100 µM (inactive) throughout.

As to `CCOc1ccc(N/C(=C(/C(Cl)=C(/Cl)NCCN)[N+](=O)[O-])n2nnc3ccccc32)cc1`, the GI50 in the assay on BT-549 was 28.4 µM (inactive); in the assay with HCC 2998 it was > 100 µM (inactive); in the assay with HOP-62, 90.8 µM (inactive); in the assay on Hs-578T, 27.5 µM (inactive); in the assay on M14, 43.9 µM (inactive); in the assay with MCF7, 35 µM (inactive). Also, the GI50 with NCI-H460 is > 100 µM (inactive); in the assay on NCI/ADR-RES it was 49.5 µM (inactive); in the assay on OVCAR-3, 13 µM (inactive); with OVCAR-8, 15 µM (inactive); with PC-3, 28.8 µM (inactive); in the assay with SF-295, 70.5 µM (inactive). The GI50 with SK-MEL-2 is > 100 µM (inactive); in the assay with SNB-19, > 100 µM (inactive); with SW-620, 6.79 µM (inactive); in the assay with U-251, 35.8 µM (inactive).

With `CNc1nc(N)nc(Nc2ccc(I)cc2)c1N=O`, the GI50 is > 100 µM (inactive) in the assay on BT-549; > 100 µM (inactive) with DU-145; > 100 µM (inactive) with HCC 2998; > 100 µM (inactive) in the assay on HOP-62; 39.1 µM (inactive) in the assay on Hs-578T; > 100 µM (inactive) in the assay with IGROV-1. Further, the GI50 in the assay with LOX IMVI was > 100 µM (inactive); with MCF7, > 100 µM (inactive); in the assay on NCI-H460, > 100 µM (inactive); in the assay with NCI/ADR-RES, > 100 µM (inactive); with OVCAR-3, 61 µM (inactive); in the assay with OVCAR-8 it was > 100 µM (inactive). The GI50 in the assay on PC-3, in the assay on SF-295, in the assay on SK-MEL-2, in the assay with SNB-19 and with SW-620 was > 100 µM (inactive) throughout.

`CC(=O)OCC1OC(n2c(N)c(C#N)c(C)c(C#N)c2=S)C(OC(C)=O)C(OC(C)=O)C1OC(C)=O` (stereo unspecified): the GI50 in the assay on BT-549, with DU-145, with HCC 2998, with HOP-62, in the assay with Hs-578T and with IGROV-1 was > 100 µM (inactive) in each case. Besides, the GI50 in the assay on LOX IMVI was > 100 µM (inactive); in the assay with M14, 46.3 µM (inactive) and 80.9 µM (inactive); in the assay on MCF7, > 100 µM (inactive); in the assay on NCI-H460, > 100 µM (inactive); in the assay on NCI/ADR-RES it was > 100 µM (inactive); in the assay on OVCAR-3, > 100 µM (inactive). Besides, the GI50 in the assay with OVCAR-8, in the assay with PC-3, in the assay with SF-295, in the assay on SK-MEL-2, in the assay with SNB-19 and in the assay on SW-620 was > 100 µM (inactive) in each case. The GI50 in the assay on U-251 is > 100 µM (inactive).

For `CC(=O)O[C@H]1C(=O)[C@@]2(C)[C@H]([C@H](OC(=O)c3ccncc3)[C@]3(O)C[C@H](OC(=O)[C@H](O)[C@@H](NC(=O)c4ccccc4)c4ccccc4)C(C)=C1C3(C)C)[C@]1(OC(C)=O)CO[C@@H]1C[C@@H]2O`, the GI50 in the assay on BT-549 was 14.5 µM (inactive); in the assay with DU-145 it was 11.6 µM (inactive); in the assay on HCC 2998, 3.24 µM (inactive); in the assay on HOP-62, > 12.4 µM (inactive); with Hs-578T it was 1.22 µM (inactive); in the assay on IGROV-1, 2.44 µM (inactive). For the same molecule, the GI50 was 1.42 µM (inactive) in the assay with LOX IMVI; 7.06 µM (inactive) with M14; 0.918 µM (active) with MCF7; 9.14 µM (inactive) in the assay on NCI-H460; > 25 µM (inactive) in the assay on NCI/ADR-RES; 1.25 µM (inactive) in the assay with OVCAR-3. In addition, the GI50 in the assay with OVCAR-8 was 8.53 µM (inactive); in the assay with PC-3, 6.56 µM (inactive); with SF-295, > 16.9 µM (inactive); in the assay on SK-MEL-2 it was 6.71 µM (inactive); with SNB-19 it was 4.51 µM (inactive); in the assay on SW-620, 1.56 µM (inactive). For the same molecule, the GI50 in the assay with U-251 was 2.34 µM (inactive).

Take `CC(=O)Nc1ccc(N2C(=O)CS(=O)(=O)C2c2cccc(Oc3ccccc3)c2)cc1` (stereo unspecified): the GI50 in the assay on BT-549 is 16.8 µM (inactive); in the assay on DU-145, 33.7 µM (inactive); in the assay on HOP-62 it was 19.3 µM (inactive); with HOP-92, 13.8 µM (inactive); with Hs-578T, 28.9 µM (inactive); in the assay on LOX IMVI it was 15.7 µM (inactive). The GI50 in the assay on M14 was 18 µM (inactive); in the assay with MCF7, 18.7 µM (inactive); with NCI-H460 it was 17.8 µM (inactive); with NCI/ADR-RES it was 17.6 µM (inactive); in the assay with OVCAR-3, 17.5 µM (inactive); with OVCAR-8, 16.7 µM (inactive). Also, the GI50 with PC-3 was 16.8 µM (inactive); in the assay on SF-295, 17 µM (inactive); in the assay on SK-MEL-2, 19.2 µM (inactive); in the assay with SNB-19, 18 µM (inactive); in the assay on SW-620, 28.9 µM (inactive); in the assay with U-251 it was 17.7 µM (inactive).

Take `c1ccc(CCN2CCN=C2Cc2ccccc2)cc1`: the GI50 with BT-549 is > 100 µM (inactive); in the assay with DU-145, > 100 µM (inactive); in the assay on HCC 2998 it was 21.3 µM (inactive); with HOP-62 it was > 100 µM (inactive); with HOP-92, 28.6 µM (inactive); in the assay with Hs-578T, > 100 µM (inactive). In addition, the GI50 is > 100 µM (inactive) with IGROV-1; > 100 µM (inactive) in the assay with LOX IMVI; 31.1 µM (inactive) with M14; > 100 µM (inactive) in the assay on MCF7; > 100 µM (inactive) with NCI-H460; 90.4 µM (inactive) in the assay on NCI/ADR-RES. The GI50 with OVCAR-3 was 71.3 µM (inactive); in the assay on OVCAR-8, > 100 µM (inactive); with SF-295 it was > 100 µM (inactive); in the assay with SK-MEL-2, > 100 µM (inactive); with SNB-19, > 100 µM (inactive); with SW-620, > 100 µM (inactive). Also, the GI50 with U-251 was > 100 µM (inactive).

Turning to `CCCCC(Sc1cc(Cl)c(C)cc1S(=O)(=O)Nc1nc(N)n[nH]1)C(=O)OC` (stereo unspecified), the GI50 with BT-549, with DU-145, with HCC 2998, with HOP-62, in the assay with Hs-578T and in the assay on IGROV-1 was > 10 µM (inactive) throughout. Besides, the GI50 with LOX IMVI, in the assay with M14, in the assay on MCF7, in the assay on NCI-H460, with NCI/ADR-RES and in the assay on OVCAR-3 was > 10 µM (inactive) throughout. For the same molecule, the GI50 with OVCAR-8, with PC-3, with SF-295, with SK-MEL-2, in the assay with SNB-19 and in the assay on SW-620 was > 10 µM (inactive) in each case. For the same molecule, the GI50 in the assay on U-251 was > 10 µM (inactive).

`Cc1ccc(C(=O)Nc2ccc(CP(=O)(O)O)cc2)cc1NC(=O)Nc1cc(C(=O)Nc2ccc(CP(=O)(O)O)cc2)ccc1C`: the GI50 in the assay with BT-549, in the assay with DU-145, in the assay with HCC 2998, in the assay on HOP-62, with Hs-578T and with IGROV-1 was > 100 µM (inactive) throughout. Also, the GI50 with LOX IMVI, in the assay with M14, in the assay with MCF7, in the assay on NCI-H460, in the assay on NCI/ADR-RES and in the assay on OVCAR-3 was > 100 µM (inactive) throughout. The GI50 in the assay with OVCAR-8, in the assay with PC-3, with SF-295, with SK-MEL-2, in the assay on SW-620 and in the assay on U-251 was > 100 µM (inactive) in each case.
